Where two headings read alike, the source gives them in different places.
Columns and labels:
[1] = Content of nitrosamine impurity P08 in varenicline tartrate tablets, initial and at high temperature (HPLC Q-Exactive-MS/MS); assay type: physicochemical
Experimental: After ultrasound for 5 min, the pH of the dispersion was measured. The content of the nitrosamine impurity P08 in the varenicline tartrate tablets were measured by HPLC Q-Exactive-MS/MS (Vanquish HPLC Q-Exactive-MS/MS).
Wherein, • “API” (Active Pharmaceutical Ingredient) refers to the API of varenicline tartrate. • “Initial” refers to the immediate measurement after the preparation of the varenicline tartrate tablet. • “Measurement at high-temperature” refers to the measurement after keeping at 60° C. of the prepared varenicline tartrate tablet for a period of time (see “Chinese Pharmacopoeia”). • Symbol * refers to the liquid sample after adjusting the pH value, and the liquid sample is tested. • Symbol # refers to the liquid sample after adjusting the pH value which is subjected to a high temperature test, and then the liquid sample is tested.
Methodologically validated HPLC Q-Exactive-MS/MS (Vanquish HPLC Q-Exactive-MS/MS) was used for the qualitative and/or quantitative determination of nitrosamine impurity P08 in varenicline tartrate tablets. The measurement results are shown in Example 4.
Sample solution: 10 varenicline tartrate tablets were placed in a 10 ml volumetric flask, added with 3 mL of purified water and 3 mL of acetonitrile, sonicated for 30s, then diluted with acetonitrile to volume and mixed evenly.
C (ppm)=the concentration (ng/ml) of P08 in the sample solution/the concentration (mg/ml) of varenicline tartrate in the sample solution.

[2] = system: Salmonella Typhimurium TA97a; assay: Ames test, plate incorporation method, TA97a; assay type: cell-based; conditions: positive control, −S9, 50 μg/dish
Experimental: (§1) Salmonella Typhimurium TA97a, TA98, TA100, TA102, and TA1535 from MOLT OX, USA, were purchased from Shanghai Bioplus Biotech.
(§2) Rat liver S9 from Shanghai Bioplus Biotech. Co., Ltd.
(§3) The experiments were performed using the plate incorporation method.
(§4) Dose selection: The experiments were performed using 5 mg, 2.5 mg, 1.25 mg, 0.625 mg, 0.3125 mg, and 0.15625 mg per dish.
(§5) 0.1 ml of frozen bacterial solutions TA97a, TA98, TA100, TA102 and TA1535 were inoculated into the 10 ml nutrient broth mediums respectively, and cultured at 37° C. (100/min) for 10 h with shaking (100 times/min). 2.0 ml of top layer medium containing 0.5 mmol/L histidine −0.5 mmol/L biotin was dispensed into test tubes, sterilized by 0.103 MPa for 20 min, and kept in a water bath at 50° C. Then, 0.1 ml of the test substance solution, 0.5 ml of the S9 mixture (when metabolic activation was required) and 0.1 ml of the bacterial solution were added into each tube successively, mixed sufficiently, and poured into the bottom layer agar plates quickly. Then, the plates were turned to distribute even. After being placed horizontally for condensation and solidification, the plates were inverted and incubated in an incubator at 37° C. for 48 h, and the number of reverse mutation colonies per dish was counted. Three parallel plates of each dose were made, containing the spontaneous reverse mutation group, the solvent control group and the positive control group.
(§6) The data were expressed as means±standards deviation (x±s), and SPSS 19.0 was used for calculation of data analysis.
(§7) If the test substance tested by the above test strain is negative both with and without S9, then the test substance is determined to be mutagenic negative.

[3] = system: Salmonella Typhimurium TA98; assay: Ames test, plate incorporation method, TA98; assay type: cell-based; conditions: positive control, TA98, −S9, 50 μg/dish
Experimental: as §1, §2, §3, §4, §5, §6, §7

[4] = system: Salmonella Typhimurium TA102; assay: Ames test, plate incorporation method, TA102; assay type: cell-based; conditions: positive control
Experimental: (§8) Salmonella Typhimurium TA97a, TA98, TA100, TA102, and TA1535 from MOLT OX, USA, were purchased from Shanghai Bioplus Biotech. Co., Ltd. The test was carried out using Salmonella typhimurium strains that were identified as meeting the requirements.
as §2, §3, §4
(§9) Test substance preparation: nitrosamine impurity compound P08 was prepared to a solution of 50 mg/ml with dimethyl-sulfoxide, and diluted with dimethyl-sulfoxide to give the solutions of 25 mg/ml, 12.5 mg/ml, 6.25 mg/ml, 3.125 mg/ml, and 1.5625 mg/ml successively.
as §5, §6, §7

[5] = system: Salmonella Typhimurium TA1535; assay type: cell-based; conditions: positive control
Experimental: as §8, §2, §3, §4, §9, §5, §6, §7

[6] = system: Salmonella Typhimurium TA100; assay: Ames test, plate incorporation method, TA100; assay type: cell-based; conditions: positive control, TA100, −S9, 1 μl/dish
Experimental: as §1, §2, §3, §4, §5, §6, §7

Molecule: varenicline tartrate [API]
- P08 in API ([1]; API of varenicline tartrate used for blue coating tablets): 0.511 ppm
- P08 in API ([1]; API of varenicline tartrate used for core tablets): 0.511 ppm
- P08 in API ([1]; API of varenicline tartrate used for white coating tablets): 0.511 ppm

Molecule: CN(C)c1ccc(N=NS(=O)(=O)[O-])cc1.[Na+] [Dexon, reference compound]
- number of reverse mutation colonies per dish (x ± s) [2]: 1294 ± 64
- number of reverse mutation colonies per dish (x ± s) [3]: 691 ± 43

Molecule: O=C1c2cccc(O)c2C(=O)c2c(O)cccc21 [1,8-dihydroxyanthraquinone, reference compound]
- number of reverse mutation colonies per dish (x ± s) ([4]; TA102, +S9, 50 μg/dish): 921 ± 32

Molecule: [N-]=[N+]=[N-] [Sodium azide, sodium azide, reference compound]
- number of reverse mutation colonies per dish (x ± s) ([5]; TA1535, −S9, 1.5 μg/dish): 570 ± 46

Molecule: O=P1(N(CCCl)CCCl)NCCCO1 (stereo not shown) [Cyclophosphamide, cyclophosphamide, reference compound]
- number of reverse mutation colonies per dish (x ± s) ([5]; TA1535, +S9, 200 μg/dish): 171 ± 11

Molecule: COS(C)(=O)=O [Methyl methanesulfonate, methyl methanesulfonate, reference compound]
- number of reverse mutation colonies per dish (x ± s) ([4]; TA102, −S9, 1 μl/dish): 2418 ± 257
- number of reverse mutation colonies per dish (x ± s) [6]: 1596 ± 71

Source: patent US20240374609A1, “NITROSAMINE IMPURITY, VARENICLINE PHARMACEUTICAL COMPOSITION CAPABLE OF REDUCING GENERATION OF NITROSAMINE IMPURITIES AND PREPARATION AND USE THEREOF” (VIWIT PHARMACEUTICALCO., LTD., priority 2021, published 2024)
